The results in this text go back to patent US11396522B2, “Bis-acetal-based substrates for imaging exo-glycosidase activity” (ALECTOS THERAPEUTICS INC., priority 2017, dated 2022).

A short description of series [1]: pH stability of Glyco-BABS. Format: physicochemical. The following applies: 5 μM, up to 72 h, pH 2 to 10. The source says: One concern with the Glyco-BABS design was the known lability of acetals under acidic conditions that has been exploited in pH-sensitive prodrugs or linkers for drug delivery.^41,42 However, we recognized that carbohydrate anomeric acetals are chemically distinct from regular acetals. Due to stabilization by the endocyclic oxygen, we expected these bis-acetals would show stability across a range of physiological pH values. We therefore assessed the stability of the bis-acetal motif toward acid and base hydrolysis (FIG. 8). To do so, we tested the pH stability of 5 μM of GlcNAc-Br-BABS 1, GlcNAc-OH-BABS 2, Glc-OH-BABS 6 and Glc-H-BABS 7 at different pH over time. We prepared solutions at various pH by mixing 0.2 M KCl+0.1 M HCl with 0.2 M KCl+0.1 M KOH. Fluorescence of EDANS and Glyco-BABS solutions (5 μM, 45 μL) at different pH was measured at different time points in Nunc 384-well plates using a SpectraMax i3× plate reader. Data (triplicates) support the highly efficient quenching and the stability of these substrates over a wide range of pH.

Another series concerns the target T1, hOGA (Homo sapiens, UniProt O60502).
T1 construct: started by addition of hOGA (WT, Full-length, expressed in E. coli. as previously described); made in house; host or cells: E. coli
T1 sequence (O60502 1-916): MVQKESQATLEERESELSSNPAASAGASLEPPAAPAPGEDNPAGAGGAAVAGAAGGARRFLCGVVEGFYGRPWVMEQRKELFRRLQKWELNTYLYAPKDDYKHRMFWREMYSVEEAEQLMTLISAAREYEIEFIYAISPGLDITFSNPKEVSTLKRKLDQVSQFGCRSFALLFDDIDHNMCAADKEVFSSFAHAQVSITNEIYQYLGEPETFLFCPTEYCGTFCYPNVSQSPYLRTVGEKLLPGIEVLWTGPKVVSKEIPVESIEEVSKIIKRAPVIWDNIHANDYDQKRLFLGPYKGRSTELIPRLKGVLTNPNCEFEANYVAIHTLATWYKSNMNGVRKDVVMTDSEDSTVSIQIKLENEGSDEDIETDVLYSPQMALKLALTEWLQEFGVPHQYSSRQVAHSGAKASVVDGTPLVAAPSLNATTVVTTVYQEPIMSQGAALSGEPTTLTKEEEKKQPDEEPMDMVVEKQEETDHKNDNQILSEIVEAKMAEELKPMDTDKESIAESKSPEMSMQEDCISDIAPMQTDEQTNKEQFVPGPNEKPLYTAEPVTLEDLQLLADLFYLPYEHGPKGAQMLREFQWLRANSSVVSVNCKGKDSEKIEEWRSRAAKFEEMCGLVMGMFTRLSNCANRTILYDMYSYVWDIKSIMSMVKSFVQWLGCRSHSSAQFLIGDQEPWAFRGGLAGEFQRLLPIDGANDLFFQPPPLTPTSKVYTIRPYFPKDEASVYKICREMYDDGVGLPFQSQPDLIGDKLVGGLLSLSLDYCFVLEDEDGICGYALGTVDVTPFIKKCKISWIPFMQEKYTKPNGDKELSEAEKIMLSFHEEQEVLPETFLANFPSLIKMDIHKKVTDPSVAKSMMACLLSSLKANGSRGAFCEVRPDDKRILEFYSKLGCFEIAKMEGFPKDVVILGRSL
Put plainly: Interrupted assay for determination of hemiacetal breakdown. Format: biochemical. On the procedure:
For some experiments, fluorescence kinetic assays were performed using a Varian Cary Eclipse Spectrophotometer set for 335/493 nm excitation/emission wavelengths. Slits were set at 10 nm and the detector was set on Medium voltage. Enzymatic reactions with human OGA were carried out in PBS at 37° C. and were started by addition of hOGA (WT, Full-length, expressed in E. coli. as previously described) in a total volume of 160 μL (Starna sub-micro Fluorometer cuvette). For measurements of rates using different concentrations of substrates, a hOGA concentration of 100 nM was used. For hOGA titration, 25 μM of Glyco-BABS were added to various concentration of hOGA. For interrupted assay, reaction was started by addition of hOGA (680 nM final) in solutions of GlcNAc-BABS in PBS. […] For hemiacetal breakdown rate measurements, data after Thiamet-G addition was extracted and fitted using Prism software. EDANS standard curve was established using endpoint fluorescence measurements of serial dilutions of EDANS in the relevant buffer using the same instrument parameters. Inner-Filter effect measurements were carried out in cuvette by measuring fluorescence of several concentrations of EDANS in presence of various concentrations of GlcNAc-BABS. Kinetics with Glc-BABS and GBA enzymes (GBA1 and GBA3 purchased from R&D Systems), kinetics with GALC (R&D systems) and Gal-BABS, pH stability, quenching efficiency, some inner-filter effect experiments and lysates experiments were carried out using a Molecular Devices SpectraMax i3× plate reader. Emission/Excitation wavelengths were set at 350 and 490 nm respectively for EDANS/DABCYL Glyco-BABS and at 565 and 610 nm respectively for TAMRA/BHQ2 Glyco-BABS. Fluorescence measurements were performed using Costar 96-well black plates or Nunc 384-well black plates after sample preparation in 96-well mixing plates. For GBA1, the continuous assay was performed in citrate buffer (50 mM, pH 5.5) in the presence of 0.1% Triton, 1 mg/mL BSA and 0.14% taurodeoxycholate at 25° C. […]

For `CC(=O)N[C@H]1[C@H](O[C@@H](OCCOCCn2cc(CNC(=O)c3ccc(/N=N/c4ccc(N(C)C)cc4)cc3)nn2)[C@@](C)(O)C(=O)NCCNc2cccc3c(S(=O)(=O)O)cccc23)O[C@H](CO)[C@@H](O)[C@@H]1O` [Compound 2, 5-((2-((2R,3R)-3-(((2S,3R,4R,5S,6R)-3-acetamido-4,5-dihydroxy-6-(hydroxymethyl)tetrahydro-2H-pyran-2-yl)oxy)-3-(2-(2-(4-((4-((E)-(4-(dimethylamino)phenyl)diazenyl)benzamido)methyl)-1H-1,2,3-triazol-1-yl)ethoxy)ethoxy)-2-hydroxy-2-methylpropanamido)ethyl)amino)naphthalene-1-sulfonic Acid], in series [1], the “pH stability (increase of fluorescence)” value was “no significant increase of fluorescence”. For the same compound, the “first order rate constant (k3) for hemiacetal breakdown” value at hOGA (hemiacetal generated from the substrate, hOGA stopped after 1 min with Thiamet-G 100 μM) was 0.044 s⁻¹. In addition, the “hemiacetal breakdown, times faster than the one from GlcNAc-Br-BABS 1” value at hOGA (ratio of k3) amounted to 4.5 times.
